# Measurements published in paper PMC11672547, “Combination of Coevolutionary Information and Supervised Learning Enables Generation of Cyclic Peptide Inhibitors with Enhanced Potency from a Small Data Set” (ACS Central Science, 2024).
# Numbered stars: 1 amine (or outer) side, 2 acyl side, 3 side chain; on linkers, the order of the positions; unused ones are H or OH. Bridge positions count the residues as written; N and C are the ends. Peptide text beside a SMILES is read from it. TBMB = c1c(C[*:1])cc(C[*:3])cc1C[*:2]
# Target: T1, human urokinase-type plasminogen activator (huPA) (Homo sapiens, UniProt P00749)
# T1 construct: (UPA-LMW, Molecular Innovations, Novi, MI, USA) 1.5 nM; purchased Molecular Innovations UPA-LMW
# Assay: huPA inhibition, fluorogenic enzyme activity assay (Z-Gly-Gly-Arg-AMC), Ki by Cheng-Prusoff
# Type: biochemical
# Conditions: 25 °C, pH 7.4, substrate 50 μM, mean ± S.E. of at least three measurements, read-out: Ki
# Method: bicyclic peptides. The activity assay was performed by incubating […] huPA with 50 μM fluorogenic substrate Z-Gly-Gly-Arg-AMC (50 μM; Bachem, Bubendorf, Switzerland) and […]
# NaCl, 10 mM MgCl2, 1mM CaCl2, 0.1% w/v BSA, 0.01% v/v Triton-X100 and 5% v/v DMSO.
# The measurements were performed on a Tecan microplate reader (Tecan infinite 200 pro, Tecan Trading AG, Switzerland) using black microfluor 96-well plate Nunc MicroWell, (Thermo Fisher Scientific, Dreieich, Germany) The enzymatic reactions were performed at 25 °C for 30 min, under shacking with an excitation wavelength of 355 nm and an emission recording at 460 nm. The initial velocities were monitored as changes in fluorescence intensity. The sigmoidal curves were fitted to the data using the following non-linear regression equation for the inhibitory dose-response curves with variable slope (2): […]
# where x is the peptide concentration, y is the residual percentage of protease activity and p is the hill slope. Half maximum inhibitory concentration (IC50) values were derived from the fitted curves from GraphPad Prism 8 8.0.0. software (GraphPad software, Inc., San Diego, California). The final Ki was subsequently determined using the Cheng-Prusoff equation (3): […]
# where Km (115 μM) is the Michaelis constant for the hydrolysis of Z-Gly-Gly-Arg-AMC catalysed by huPA which has been determined by standard Michaelis-Menten equation.
# Values were determined using either OriginPro 8G software (OriginLab Corporation, Northamppton, MA, USA) or GraphPad Prism 8.0.0. software (GraphPad software, Inc., San […]
# Recombinant production of the catalytic domain of human urokinase-type […]
# The low molecular weight (LMW) human urokinase-type plasminogen activator (huPA) comprising the truncated 23 amino acid peptide fragment of chain A (Lys136-Lys158 in […]
row,SMILES,Ki [µM]
1,"CC(C)[C@@H]1NC(=O)[C@H](CCC(=O)O)NC(=O)[C@H](Cc2ccc(O)cc2)NC(=O)[C@H](CCCN=C(N)N)NC(=O)[C@H](CO)NC(=O)[C@@H](NC(=O)[C@H](C)N)CSCc2cc3cc(c2)CSC[C@H](NC(=O)[C@H](CC(=O)O)NC1=O)C(=O)N[C@@H](CCCN=C(N)N)C(=O)NCC(=O)N[C@@H](CCCN=C(N)N)C(=O)NCC(=O)N[C@@H](CO)C(=O)N[C@@H](C)C(=O)N[C@H](C(=O)NCC(N)=O)CSC3 [UK18, reference compound] (H-ACSRYEVDCRGRGSACG-NH2; linker 2-9-16 via TBMB)",0.0547 ± 0.008
2,CC(C)[C@@H]1NC(=O)CNC(=O)CNC(=O)[C@H](CCCNC(=N)N)NC(=O)CNC(=O)[C@H](CCCNC(=N)N)NC(=O)[C@@H]2CSCc3cc(cc(c3)CSC[C@@H](C(=O)NCC(N)=O)NC1=O)CSC[C@H](NC(=O)[C@H](C)N)C(=O)N[C@@H](CC(=O)O)C(=O)N[C@@H](CCCNC(=N)N)C(=O)N[C@@H](Cc1ccccc1)C(=O)N[C@@H](C(C)C)C(=O)N[C@@H](C(C)C)C(=O)N[C@@H](CC(=O)O)C(=O)N2 [UK956] (H-ACDRFVVDCRGRGGVCG-NH2; linker 2-9-16 via TBMB),0.0947 ± 0.0003
3,CC(C)[C@@H]1NC(=O)[C@H](Cc2ccccc2)NC(=O)[C@H](CCCNC(=N)N)NC(=O)[C@H](CC(=O)O)NC(=O)[C@@H](NC(=O)[C@H](C)N)CSCc2cc3cc(c2)CSC[C@@H](C(=O)NCC(N)=O)NC(=O)[C@@H]2CCCN2C(=O)CNC(=O)CNC(=O)[C@H](CCCNC(=N)N)NC(=O)CNC(=O)[C@H](CCCNC(=N)N)NC(=O)[C@H](CSC3)NC(=O)[C@H](CC(=O)O)NC(=O)[C@H](C(C)C)NC1=O [UK957] (H-ACDRFVVDCRGRGGPCG-NH2; linker 2-9-16 via TBMB),0.0074 ± 0.0009
4,CC(C)[C@@H]1NC(=O)[C@H](CO)NC(=O)CNC(=O)[C@H](CCCNC(=N)N)NC(=O)CNC(=O)[C@H](CCCNC(=N)N)NC(=O)[C@@H]2CSCc3cc(cc(c3)CSC[C@@H](C(=O)NCC(N)=O)NC1=O)CSC[C@H](NC(=O)[C@H](C)N)C(=O)N[C@@H](CC(=O)O)C(=O)N[C@@H](CCCNC(=N)N)C(=O)N[C@@H](Cc1ccccc1)C(=O)N[C@@H](C(C)C)C(=O)N[C@@H](C(C)C)C(=O)N[C@@H](CC(=O)O)C(=O)N2 [UK958] (H-ACDRFVVDCRGRGSVCG-NH2; linker 2-9-16 via TBMB),0.1549 ± 0.001
5,CC(C)[C@@H]1NC(=O)[C@H](Cc2ccccc2)NC(=O)[C@H](CCCNC(=N)N)NC(=O)[C@H](CC(=O)O)NC(=O)[C@@H](NC(=O)[C@H](C)N)CSCc2cc3cc(c2)CSC[C@@H](C(=O)NCC(N)=O)NC(=O)[C@@H]2CCCN2C(=O)[C@H](CO)NC(=O)CNC(=O)[C@H](CCCNC(=N)N)NC(=O)CNC(=O)[C@H](CCCNC(=N)N)NC(=O)[C@H](CSC3)NC(=O)[C@H](CC(=O)O)NC(=O)[C@H](C(C)C)NC1=O [UK959] (H-ACDRFVVDCRGRGSPCG-NH2; linker 2-9-16 via TBMB),0.0775 ± 0.0002
6,CC(C)[C@@H]1NC(=O)CNC(=O)CNC(=O)[C@H](CCCNC(=N)N)NC(=O)CNC(=O)[C@H](CCCNC(=N)N)NC(=O)[C@@H]2CSCc3cc(cc(c3)CSC[C@@H](C(=O)NCC(N)=O)NC1=O)CSC[C@H](NC(=O)[C@H](C)N)C(=O)N[C@@H](CC(=O)O)C(=O)N[C@@H](CCCNC(=N)N)C(=O)N[C@@H](Cc1ccccc1)C(=O)N[C@@H](CCC(=O)O)C(=O)N[C@@H](C(C)C)C(=O)N[C@@H](CC(=O)O)C(=O)N2 [UK960] (H-ACDRFEVDCRGRGGVCG-NH2; linker 2-9-16 via TBMB),0.0812 ± 0.0003
7,CC(C)[C@@H]1NC(=O)[C@H](CCC(=O)O)NC(=O)[C@H](Cc2ccccc2)NC(=O)[C@H](CCCNC(=N)N)NC(=O)[C@H](CC(=O)O)NC(=O)[C@@H](NC(=O)[C@H](C)N)CSCc2cc3cc(c2)CSC[C@@H](C(=O)NCC(N)=O)NC(=O)[C@@H]2CCCN2C(=O)CNC(=O)CNC(=O)[C@H](CCCNC(=N)N)NC(=O)CNC(=O)[C@H](CCCNC(=N)N)NC(=O)[C@H](CSC3)NC(=O)[C@H](CC(=O)O)NC1=O [UK961] (H-ACDRFEVDCRGRGGPCG-NH2; linker 2-9-16 via TBMB),0.0162
8,CC(C)[C@@H]1NC(=O)[C@H](CO)NC(=O)CNC(=O)[C@H](CCCNC(=N)N)NC(=O)CNC(=O)[C@H](CCCNC(=N)N)NC(=O)[C@@H]2CSCc3cc(cc(c3)CSC[C@@H](C(=O)NCC(N)=O)NC1=O)CSC[C@H](NC(=O)[C@H](C)N)C(=O)N[C@@H](CC(=O)O)C(=O)N[C@@H](CCCNC(=N)N)C(=O)N[C@@H](Cc1ccccc1)C(=O)N[C@@H](CCC(=O)O)C(=O)N[C@@H](C(C)C)C(=O)N[C@@H](CC(=O)O)C(=O)N2 [UK962] (H-ACDRFEVDCRGRGSVCG-NH2; linker 2-9-16 via TBMB),0.081 ± 0.0079
9,CC(C)[C@@H]1NC(=O)[C@H](CCC(=O)O)NC(=O)[C@H](Cc2ccccc2)NC(=O)[C@H](CCCNC(=N)N)NC(=O)[C@H](CC(=O)O)NC(=O)[C@@H](NC(=O)[C@H](C)N)CSCc2cc3cc(c2)CSC[C@@H](C(=O)NCC(N)=O)NC(=O)[C@@H]2CCCN2C(=O)[C@H](CO)NC(=O)CNC(=O)[C@H](CCCNC(=N)N)NC(=O)CNC(=O)[C@H](CCCNC(=N)N)NC(=O)[C@H](CSC3)NC(=O)[C@H](CC(=O)O)NC1=O [UK963] (H-ACDRFEVDCRGRGSPCG-NH2; linker 2-9-16 via TBMB),0.0814 ± 0.0009
10,CC(C)[C@@H]1NC(=O)[C@H](CCC(=O)O)NC(=O)[C@H](Cc2ccc(O)cc2)NC(=O)[C@H](CCCNC(=N)N)NC(=O)[C@H](CO)NC(=O)[C@@H](NC(=O)[C@H](C)N)CSCc2cc3cc(c2)CSC[C@@H](C(=O)NCC(N)=O)NC(=O)[C@@H]2CCCN2C(=O)[C@H](CO)NC(=O)CNC(=O)[C@H](CCCNC(=N)N)NC(=O)CNC(=O)[C@H](CCCNC(=N)N)NC(=O)[C@H](CSC3)NC(=O)[C@H](CC(=O)O)NC1=O [UK964] (H-ACSRYEVDCRGRGSPCG-NH2; linker 2-9-16 via TBMB),0.0314 ± 0.0001
11,CC(C)[C@@H]1NC(=O)[C@H](CCC(=O)O)NC(=O)[C@H](Cc2ccc(O)cc2)NC(=O)[C@H](CCCNC(=N)N)NC(=O)[C@H](CO)NC(=O)[C@@H](NC(=O)[C@H](C)N)CSCc2cc3cc(c2)CSC[C@@H](C(=O)NCC(N)=O)NC(=O)[C@@H]2CCCN2C(=O)CNC(=O)CNC(=O)[C@H](CCCNC(=N)N)NC(=O)CNC(=O)[C@H](CCCNC(=N)N)NC(=O)[C@H](CSC3)NC(=O)[C@H](CC(=O)O)NC1=O [UK965] (H-ACSRYEVDCRGRGGPCG-NH2; linker 2-9-16 via TBMB),0.0123 ± 0.001
12,CC(C)[C@@H]1NC(=O)[C@H](CCC(=O)O)NC(=O)[C@H](Cc2ccc(O)cc2)NC(=O)[C@H](CCCNC(=N)N)NC(=O)[C@H](CC(=O)O)NC(=O)[C@@H](NC(=O)[C@H](C)N)CSCc2cc3cc(c2)CSC[C@@H](C(=O)NCC(N)=O)NC(=O)[C@@H]2CCCN2C(=O)CNC(=O)CNC(=O)[C@H](CCCNC(=N)N)NC(=O)CNC(=O)[C@H](CCCNC(=N)N)NC(=O)[C@H](CSC3)NC(=O)[C@H](CC(=O)O)NC1=O [UK966] (H-ACDRYEVDCRGRGGPCG-NH2; linker 2-9-16 via TBMB),0.0116 ± 0.0012
13,CC(C)[C@@H]1NC(=O)[C@H](CCC(=O)O)NC(=O)[C@H](Cc2ccccc2)NC(=O)[C@H](CCCNC(=N)N)NC(=O)[C@H](CO)NC(=O)[C@@H](NC(=O)[C@H](C)N)CSCc2cc3cc(c2)CSC[C@@H](C(=O)NCC(N)=O)NC(=O)[C@@H]2CCCN2C(=O)CNC(=O)CNC(=O)[C@H](CCCNC(=N)N)NC(=O)CNC(=O)[C@H](CCCNC(=N)N)NC(=O)[C@H](CSC3)NC(=O)[C@H](CC(=O)O)NC1=O [UK967] (H-ACSRFEVDCRGRGGPCG-NH2; linker 2-9-16 via TBMB),0.0181 ± 0.0003
